Values quoted from earlier work as cited in US10773008B2, “Medicated patch for preventing exit site infections during peritoneal dialysis” (Universiti Brunei Darussalam, priority 2016, dated 2020).

Tests used:
[1] = in vivo
[2] = topical mupirocin
[3] = not given; remark: listed apart in the source

For `C/C(=C\C(=O)OCCCCCCCCC(=O)O)C[C@@H]1OC[C@H](C[C@@H]2O[C@H]2[C@@H](C)[C@H](C)O)[C@@H](O)[C@H]1O` [mupirocin], the PKa is listed as 4.83, the half-life [1] is listed as 20 to 40 min and the bioavailability [2] is listed as 0.24%. For the same compound, the “log P” value [3] was 2.45.
